This note sets out measurements from US20080109040A1, “METHOD OF TREATING ARRHYTHMIAS” (priority 2002, published 2008).

Where two headings read alike, the source gives them in different places. Marks after values point to notes of the source that are not given here.

The test system of one data set is anesthetized dog. Description: QT prolongation and arrhythmia induction in anesthetized dog with AV block and phenylephrine challenge. The following applies: for Arrhythmia occurrence: individual dogs; for Mean ERP LV / Mean ERP RY: sot 8 + 4. How it is done: Dogs were pretreated with Atravet (0.07 mg/kg sc) and then 15 minutes later anesthetized with ketamine (5.3 mg/kg iv) and valium (0.25 mg/kg iv) followed by isoflurane (1-2%), intubated and subjected to mechanical ventilation. They were then subjected to AV block with radiofrequency ablation. A median sternotomy was performed and catheters were inserted into a femoral artery for blood pressure (BP) recording and into both femoral veins for infusion of test drugs. Bipolar electrodes were inserted into both ventricles for programmed stimulation determination of refractory periods (extrastimulus technique), as well as for evaluation of QT interval and QRS duration at various controlled basic cycle lengths (BCLs). TdP was induced by challenges of phenylephrine, which were given as bolus intravenous doses of 10, 20, 30, 40 and 50 μg/kg. After each dose, the ECG was monitored continuously to detect arrhythmias. […] Test drug effects were evaluated as per protocols below.
Data are presented as the mean ±S.E.M. Statistical comparisons were made with Student's t test. A 2-tailed probability<0.05 was taken to indicate statistical significance. In data tables, * denotes P<0.05, **P<0.01.
Group 2 (6 dogs): Five dogs received ranolazine as a 0.5 mg/kg iv load followed by a first, a second and a third continuous iv infusion of 1.0, 3.0 and 15 mg/kg/hr, respectively. One dog received ranolazine as a 1.5 mg/kg iv load followed by infusions of 15 and 30 mg/kg/hr. […] The phenylephrine challenges were then given, with all doses given at each drug infusion rate, and any arrhythmias monitor.

Data set [1] has as its system guinea pig isolated heart. In words: K-H buffer perfused guinea pig isolated heart: MAP duration, EADs and VT. The source says: To study the effect of ranolazine on ATXII induced MAP (monophasic action potential) duration prolongation, EADs and ventricular tachyarrhythmia (VT), the K—H buffer perfused guinea pig isolated heart model was used.
Multiple EADs and sustained depolarizations were frequently observed.

Data set [2] relates to guinea pig ventricular myocytes. In words: Action potential duration, EADs and triggered activity in guinea pig ventricular myocytes. How it is done: Single ventricular myocytes were isolated from the hearts of adult, male guinea pigs (Harlan). In brief, the hearts were perfused with warm (35° C.) and oxygenated solutions in the following order: 1) Tyrode solution containing (in mmol/L) 140 NaCl, 4.6 KCl, 1.8 CaCl2, 1.1 MgSO4, 10 glucose and 5 HEPES, pH 7.4, for 5 minutes; 2) Ca^2+-free solution containing (in mmol/L) 100 NaCl, 30 KCl, 2 MgSO4, 10 glucose, 5 HEPES, 20 taurine, and 5 pyruvate, pH 7.4, for 5 minutes; and 3) Ca^2+-free solution containing sollagenase (120 units/ml) and albumin (2 mg/ml), for 20 minutes. At the end of the perfusion, the ventricles were removed, minced, and gently shaken for 10 minutes in solution #3. Isolated cells were harvested from the cell suspension.
Myocytes were placed into a recording chamber and superfused with Tyrode solution at 35° C. Drugs were applied via the superfusate. Action potentials were measured using glass microelectrodes filled with a solution containing (in mmol/L) 120 K-aspartate, 20 KCl, 1 MgCl2, 4 Na2ATP, 0.1 Na3GTP, 10 glucose, 1 EGTA and 10 HEPES (pH 7.2). Microelectrode resistance was 1-3 MΩ. An Axopatch-200 amplifier, a DigiData-1200A interface and pCLAMP6 software were used to perform electrophysiological measurements. Action potentials were induced by 5-ms depolarizing pulses applied at various frequencies as indicated. The duration of action potential was measured at 50% (APD50) and 90% (APD90) repolarization.
1) Ventricular myocytes were electrically stimulated at a frequency of 0.5, 1 or 2 Hz. Each myocyte was treated with 3, 10 and 30 μmol/L ranolazine. The effect of ranolazine on action potential duration at each pacing frequency was determined from 4 myocytes.
2) Action potentials were elicited at a frequency of 0.25 Hz, and the effect of ranolazine (10 μmol/L) on action potential duration was examined in the presence of 5 μmol/L quinidine. Experiments were performed on 4 myocytes.
Following the procedures and protocols of Example 21, guinea pig ventricular myocytes were electrically stimulated in the presence of ranolazine either alone or in the presence of ATX II [a sea anemone toxin known to mimic LQT3 syndrome by slowing Na^+-channel inactivation from the open state and thereby increasing the peak and late Na^+ current (INa) of cardiomyocytes]. ATXII is known to induce early afterdepolarizations (EADs) and triggered activity and ventricular tachycardia.
Action potentials were recorded using the whole-cell patch-electrode technique. Ventricular monophasic action potentials and electrograms were recorded from isolated hearts.
The ventricular APD of guinea pigs isolated myocytes and hearts was measured, respectively, at 50% (APD50) and 90% (MAPD90) repolarization.

`CC(C)NCC(O)c1ccc(NS(C)(=O)=O)cc1` (racemic) [sotalol, reference compound]: the Arrhythmia occurrence result was “death” with anesthetized dog (Sot 8 + 4 plus phenylephrine 10 μg/kg, — = none); “death” in the data set on anesthetized dog (Sot 8 + 4 plus phenylephrine 30 μg/kg); “tdp VF death” with anesthetized dog (Sot 8 + 4 plus phenylephrine 40 μg/kg); “death” in the data set on anesthetized dog (Sot 8 + 4 plus phenylephrine 50 μg/kg). Besides, the “Effect on QRS duration” value in the data set with anesthetized dog (dog, in vivo) is given as “did not affect”. Further, the “Mean ERP LV” value was 201.25 ± 18.75 ms in the data set with anesthetized dog (BCL 300), 226.25 ± 21.25 ms in the data set on anesthetized dog (BCL 400), 262.50 ± 27.5* ms with anesthetized dog (BCL 600) and 286.25 ± 16.25* ms in the data set with anesthetized dog (BCL 1000). The “Mean ERP RY” value is reported as 181.33 ± 8.21** ms in the data set with anesthetized dog (BCL 300), 195.67 ± 7.53** ms in the data set with anesthetized dog (BCL 400), 223.50 ± 9.07** ms in the data set on anesthetized dog (BCL 600) and 255.50 ± 9.56** ms with anesthetized dog (BCL 1000). Also, the “Death from torsade de pointes degenerating to ventricular fibrillation” value with anesthetized dog (sotalol infusion and a phenylephrine bolus) is given as “All the dogs eventually died”.
As to `CCS(=O)(=O)N(C)[C@H]1c2cc(C#N)ccc2OC(C)(C)[C@@H]1O` [293B, reference compound], the “Increase of MAPD90” value is 6.3±0.2% in data set [1] (293B 1 μmol/L alone) and 31.6±0.1% in data set [1] (293B applied with ATX-II). Further, in data set [2], the “Induction of EADs” value is “induced EADs in the presence, but not in the absence, of ATX-II”. For the same molecule, the “Increase of APD50” value in data set [2] (293B 30 μmol/L, absence of ATX-II) turned out to be 40±7%; in data set [2] (293B 30 μmol/L, presence of ATX-II), 202±59%.
On to `Cc1cccc(CCN2CCC(C(=O)c3ccc(NS(C)(=O)=O)cc3)CC2)n1` [E-4031, reference compound], for which the figures for the “Increase of MAPD90” value in data set [1] (E-4031 1 μmol/L alone) and in data set [1] (E-4031 applied with ATX-II) were 30.1±0.1% and 127.1±0.4%, respectively. In addition, the “Increase of APD50” value in data set [2] (E-4031 1 μmol/L, absence of ATX-II) came to 11±2%; in data set [2] (E-4031 1 μmol/L, presence of ATX-II), 104±41%.
On to `C=C[C@H]1C[N@@]2CC[C@H]1C[C@@H]2[C@@H](O)c1ccnc2ccc(OC)cc12` [quinidine, reference compound], for which the “Effect on duration of action potential” value in data set [2] (quinidine 5 μmol/L, 0.25 Hz) is on record as “increased the duration of action potential”.
As to “ATXII: a sea anemone toxin known to mimic LQT3 syndrome by slowing Na+-channel inactivation from the open state [reference compound]”, the “Increase of MAPD90” value in data set [1] (ATX-II 7 nmol/L alone) was 32±0.1%. In addition, the “Isolated hearts with EADs and (polymorphic) VT” value is reported as 10/14 in data set [1] (ATXII 10-20 nM) and 10 of 14 in data set [1] (ATXII 10-20 nM, listed as ATX-II). Besides, the “Prolongation of MAPD90” value in data set [1] (ATXII 10-20 nM, 4 hearts without rapid ventricular arrhythmia) was found to be 6%. Further, the “Increase of APD50” value in data set [2] (ATX-II 3 nmol/L alone) is on record as 6±2%. Further, the “Induction of EADs” value in data set [2] (ATX-II 10-20 nmol/L) and in data set [2] (ATXII 10-40 nmol/L) was “induced EADs in all cells” throughout. Moreover, the “APD50 in the presence of ATX-II” value in data set [2] (ATX-II 10-20 nmol/L, n=24) is reported as 1,148±49 ms. The “APD50 in the presence of ATXII” value in data set [2] (ATXII 10-40 nmol/L, n=20) is reported as 1,154±61 ms.
